Several values for one entry are separate records, joined by “and”; a condition that tells them apart may be missing. Identical values can stand only once. Like-named read-outs stand apart in the source and are kept apart here.

Assay [1] concerns the target T1, SaFtsZ (Staphylococcus aureus, UniProt P0A031).
T1 construct: purchased Cytoskeleton, Inc. FTZ02
T1 sequence (P0A031 1-390): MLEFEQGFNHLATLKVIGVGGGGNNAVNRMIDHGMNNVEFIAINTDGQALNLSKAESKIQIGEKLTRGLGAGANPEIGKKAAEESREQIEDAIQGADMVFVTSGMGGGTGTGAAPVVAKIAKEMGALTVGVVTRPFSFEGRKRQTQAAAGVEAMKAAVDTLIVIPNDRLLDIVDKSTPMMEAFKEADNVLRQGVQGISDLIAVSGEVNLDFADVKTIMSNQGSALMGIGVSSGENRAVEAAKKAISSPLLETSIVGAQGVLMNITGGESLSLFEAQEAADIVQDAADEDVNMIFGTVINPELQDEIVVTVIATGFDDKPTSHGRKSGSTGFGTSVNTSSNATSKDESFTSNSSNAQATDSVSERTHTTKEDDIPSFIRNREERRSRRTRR
Put plainly: Surface plasmon resonance analysis. It is filed as binding, S. aureus. The settings on record: SPR, immobilized SaFtsZ, 25°C, steady-state. How it is done: SPR analysis was performed using a Biacore X100 system (Cytiva, USA) equipped with a CM5 sensor chip at 25°C. SaFtsZ protein was immobilized onto the chip surface via standard amine coupling. Briefly, flow cells 1 (Fc1) and 2 (Fc2) were activated with a 1:1 mixture of 0.4 M EDC and 0.1 M NHS for 7 min. The SaFtsZ protein was diluted to 40 μg/mL in 0.1 M sodium acetate buffer (pH 4.0) and immobilized onto Fc2. The response units (RU) reaching an immobilization level of approximately 4693.2. Unreacted sites in both flow cells were blocked with ethanolamine for 7 min. Subsequently, analyte solutions containing test compounds at varying concentrations were injected over both flow cells, and binding responses were monitored in real time. Data analysis was performed using Biacore Evaluation Software v2.0.2.
We first performed SPR spectroscopy to experimentally measure the binding affinities of AA, MA, and UA for immobilized SaFtsZ protein.

The target in assay [2] is T1, SaFtsZ. Put plainly: FtsZ polymerization assay (A360). The settings on record: 10 μM SaFtsZ; 0.25 × and 0.5 × MIC; vs DMSO control. The format is biochemical. The method, then: To assess the effects of AA, MA, and UA on FtsZ polymerization, an in vitro FtsZ polymerization assay was performed. […] Polymerization was initiated by the addition of polymerization buffer components, bringing the final concentrations to 250 mM KCl and 5 mM MgCl2 Absorbance at 360 nm (A360) was monitored for 5 min to establish a stable baseline. GTP was then added to a final concentration of 1 mM. Polymerization was tracked by measuring A360 for 30 min using a microplate reader (SpectraMax i3x, Molecular Devices, CA, USA).
To determine whether the disruptions of Z-ring were due to direct effects on FtsZ polymerization, we performed in vitro polymerization assays. FtsZ polymerization was assessed by monitoring the time-dependent increase in A360 upon induction using a microplate reader. Briefly, 10 μM SaFtsZ was pre-incubated with AA, MA, UA or DMSO, and polymerization was initiated by adding K^+, Mg^2+, and GTP.

Assay [3] relates to MRSA-4. Put plainly: MRSA skin infection model. It is filed as in vivo, BALB/c mice. The method, then: All animal experiments were conducted in accordance with the NIH Guide for the Care and Use of Laboratory Animals and the institutional guidelines of West China Hospital, Sichuan University. The study was approved by the Institutional Animal Care and Use Committee (HX20220224085). Female BALB/c mice (6–8 weeks old) were obtained from Chengdu DOSSY Experimental Animal Co., Ltd. (Chengdu, China) and randomly assigned to five groups (n = 6 per group). On day 0, mice were subcutaneously inoculated with 2 × 10^8 CFUs of MRSA-4 suspended in 50 μL of sterile PBS. Treatment commenced 24 h post-infection. Mice received once daily subcutaneous injections at the site of infection for four consecutive days with either AA (0.2, 0.4, or 0.8 mg/kg), vancomycin (0.8 mg/kg, positive control), or PBS (negative control). Lesion progression was monitored daily by photographing the infected area, and wound sizes were quantified using ImageJ software (Version 1.42q, NIH, USA). On day 5 post-infection, mice were anesthetized and euthanized. The whole lesioned skin tissues were aseptically excised, homogenized in 1 mL of sterile PBS, and serially diluted. Aliquots were plated on LB agar and incubated at 37°C overnight to determine bacterial burdens.
Building on its rapid bactericidal activity in vitro and unique FtsZ-binding profile, we next evaluated the in vivo therapeutic efficacy of AA using a murine skin infection model. The model was established in BALB/c mice by subcutaneous inoculation with 2 × 10^8 CFU of MRSA-4 (Figure 7A). Treatment began 24 h post-infection and consisted of daily subcutaneous injections at the infection site for four consecutive days with AA (0.2, 0.4, or 0.8 mg/kg), vancomycin (at 0.8 mg/kg; positive control), or PBS (negative control). Therapeutic outcomes were assessed on day 5 post-infection by quantifying bacterial burden, visually monitoring wound healing, and measuring abscess size.

The test system of assay [4] is MRSA-4. In words: Time-dependent killing assay. It is filed as cell-based, Methicillin-resistant S. aureus. The settings on record: for time-kill outcome at 1 × and 2 × MIC: 1 × or 2 × MIC, initial reduction within 2 h, regrowth by 24 h; for nature of antibacterial effect (time-kill assays): MRSA-4. The method, then: An overnight culture of MRSA-4 was diluted 1:100 in fresh MHB and incubated at 37°C with shaking (200 rpm) until reaching mid-log phase (OD600 = 0.4–0.6). The culture was then adjusted to 1 × 10^6 CFU/mL and treated with AA, MA, or UA at concentrations of 1×, 2×, and 4 × MIC. 2 × MIC of vancomycin was used as a positive control, and an equivalent volume of DMSO served as the negative control. The cultures were incubated at 37°C with shaking (200 rpm) during the assay. At designated time points (0, 1, 2, 4, 8, and 24 h), samples were collected, serially diluted tenfold in sterile PBS, and 100 μL of appropriate dilutions were plated on LB agar. Plates were incubated at 37°C for 18–24 h, and viable bacteria were quantified. All experiments were performed in biological triplicates.
We next performed time-kill kinetics assays to characterize the time-dependent antibacterial effects of AA, MA, and UA against MRSA-4. Bacterial cultures were exposed to AA, MA, and UA at 1×, 2×, and 4 × their respective MICs, and viable CFU were counted at designated time points (0, 1, 2, 4, 8, and 24 h). As shown in the time-kill curves (Figure 1), treatment with 1 × or 2 × MIC of AA, MA, or UA led to an initial reduction in bacterial load within the first 2 h.

[5] abbreviates: 0.8 mg/kg s.c. once daily for 4 days, day 5, vs PBS.
[6] abbreviates: read-out: equilibrium dissociation constant (Kd).

`C[C@H]1[C@H](C)CC[C@]2(C(=O)O)CC[C@]3(C)C(=CC[C@@H]4[C@@]5(C)C[C@@H](O)[C@H](O)[C@@](C)(CO)[C@@H]5CC[C@]43C)[C@H]12` [AA, asiatic acid]: the dissociation constant Kd in assay [1] (equilibrium dissociation constant (Kd)) turned out to be 2.4 µM. For the same compound, the “effect on FtsZ polymerization (A360)” value in assay [2] was “significantly enhanced FtsZ polymerization”. The “wound healing (visual inspection)” value in assay [3] (0.8 mg/kg s.c. once daily for 4 days) is “substantial amelioration of symptoms”. For the same compound, in assay [3] (setting [5]), the abscess size result is “significantly reduced abscess dimensions” and the “bacterial load in infected skin tissues” value was “significantly reduced bacterial counts”. Also, in assay [3] (0.2 and 0.4 mg/kg s.c. once daily for 4 days, day 5, vs PBS), the “bacterial load in infected skin tissues” value is listed as “modest but dose-responsive decreases in bacterial load”. Besides, the “wound healing (visual inspection)” value in assay [3] (low-dose (0.2 and 0.4 mg/kg) s.c. once daily for 4 days) is listed as “moderate, dose-dependent improvements in wound appearance”. Moreover, in assay [4], the “time-kill outcome at 1 × and 2 × MIC” value is recorded as “primarily bacteriostatic activity”; the “nature of antibacterial effect (time-kill assays)” value (shortened to “nature of antibacterial effect”) is listed as “bactericides”. The “bacterial counts (below the detection limit)” value in assay [4] (4 × MIC) is recorded as less than 2 log10 CFU/mL. Besides, the “reduction of viable bacterial counts” value in assay [4] (4 × MIC, within 2 h) is on record as greater than 3 log10 CFU/mL.
As for `CC1(C)CC[C@]2(C(=O)O)CC[C@]3(C)C(=CC[C@@H]4[C@@]5(C)C[C@@H](O)[C@H](O)C(C)(C)[C@@H]5CC[C@]43C)[C@@H]2C1` [MA, maslinic acid], in assay [1] (setting [6]), the Kd was 9.8 µM and 9.76 µM. In addition, in assay [2], the “effect on FtsZ polymerization (A360)” value is recorded as “markedly inhibited FtsZ polymerization”. In assay [4], the “time-kill outcome at 1 × and 2 × MIC” value is “primarily bacteriostatic activity”; the “nature of antibacterial effect” value is listed as “bactericides”. The “reduction of viable bacterial counts” value in assay [4] (4 × MIC, at/over 24 h) was greater than 3 log10 CFU/mL.
In the case of `C[C@H]1[C@H](C)CC[C@]2(C(=O)O)CC[C@]3(C)C(=CC[C@@H]4[C@@]5(C)CC[C@H](O)C(C)(C)[C@@H]5CC[C@]43C)[C@H]12` [UA, ursolic acid], in assay [1] (setting [6]), the Kd was 0.7 µM and 0.663 µM. Also, the “effect on FtsZ polymerization (A360)” value in assay [2] was “markedly inhibited FtsZ polymerization”. Moreover, in assay [4], the “time-kill outcome at 1 × and 2 × MIC” value is given as “primarily bacteriostatic activity”; the “nature of antibacterial effect” value is “bacteriostatic”. Further, the “reduction of viable bacterial counts” value in assay [4] (4 × MIC, at/over 24 h) is listed as no more than 3 log10 CFU/mL.

The record behind these values is PMC12213745, “Compounds from Cyclocarya paliurus leaves inhibit binary division of methicillin-resistant Staphylococcus aureus by disrupting FtsZ dynamic” (Frontiers in Microbiology, 2025).
